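Tested at 5 concentrations; 48 h exposure; 96-well plates; endpoints linearly interpolated, else capped at highest concentration. GI50 = concentration required for 50% inhibition of growth.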 Active and inactive are the calls of the source. Cut-off read from the data, not from the text of the source: active = GI50 up to about 1.1 µM and inactive = higher. Where a SMILES comes first, the peptide text is derived from it. The star is where a group is joined. Boc = CC(C)(C)OC(=O)*
Legend:
Test in all cases: DTP human tumour cell line panel, 48 h
XF498 = test system: XF498
KM-20L2 = test system: KM-20L2
SK-OV-3 = test system: SK-OV-3
MOLT-4 = test system: MOLT-4
SN12C = test system: SN12C
NCI-H522 = test system: NCI-H522
SF-268 = test system: SF-268
OVCAR-8 = test system: OVCAR-8
DMS-114 = test system: DMS-114
U-251 = test system: U-251
HT-29 = test system: HT-29
SNB-78 = test system: SNB-78
SK-MEL-2 = test system: SK-MEL-2
NCI-H226 = test system: NCI-H226
HL-60 = test system: HL-60
SF-539 = test system: SF-539
ACHN = test system: ACHN
OVCAR-4 = test system: OVCAR-4
SK-MEL-28 = test system: SK-MEL-28
786-0 = test system: 786-0
CCRF-CEM = test system: CCRF-CEM
M19-MEL = test system: M19-MEL
NCI-H23 = test system: NCI-H23
UACC-62 = test system: UACC-62
Malme-3M = test system: Malme-3M
HCC 2998 = test system: HCC 2998
OVCAR-3 = test system: OVCAR-3
A549 = test system: A549
IGROV-1 = test system: IGROV-1
SW-620 = test system: SW-620
SNB-75 = test system: SNB-75
LOX IMVI = test system: LOX IMVI
OVCAR-5 = test system: OVCAR-5
LXFL 529 = test system: LXFL 529
CAKI-1 = test system: CAKI-1
NCI-H460 = test system: NCI-H460
RPMI-8226 = test system: RPMI-8226
UACC-257 = test system: UACC-257
M14 = test system: M14
RXF 631 = test system: RXF 631
HCT-116 = test system: HCT-116
HOP-92 = test system: HOP-92
EKVX = test system: EKVX
UO-31 = test system: UO-31
DMS-273 = test system: DMS-273
COLO 205 = test system: COLO 205
HCT-15 = test system: HCT-15
HOP-18 = test system: HOP-18
A498 = test system: A498
DLD-1 = test system: DLD-1
KM12 = test system: KM12
SR = test system: SR
SK-MEL-5 = test system: SK-MEL-5
SF-295 = test system: SF-295
SNB-19 = test system: SNB-19
TK-10 = test system: TK-10
RXF 393 = test system: RXF 393
K562 = test system: K562
HOP-62 = test system: HOP-62

Measured: GI50

CC(C)(C)OC(=O)NC(Cc1ccc(O)cc1)C(=O)N1CCCC1C(=O)O (stereo not drawn) (Boc-Tyr-Pro-OH; configuration not given here)
inactive: XF498 > 100 µM | KM-20L2 > 100 µM | SK-OV-3 > 100 µM | MOLT-4 > 100 µM | SN12C > 100 µM | NCI-H522 > 100 µM | SF-268 > 100 µM | OVCAR-8 > 100 µM | DMS-114 > 100 µM | U-251 > 100 µM | HT-29 > 100 µM | SNB-78 > 100 µM | SK-MEL-2 > 100 µM | NCI-H226 > 100 µM | HL-60 > 100 µM | SF-539 > 100 µM | ACHN > 100 µM | OVCAR-4 > 100 µM | SK-MEL-28 > 100 µM | 786-0 > 100 µM | CCRF-CEM > 100 µM | M19-MEL > 100 µM | NCI-H23 > 100 µM | UACC-62 > 100 µM | Malme-3M > 100 µM | HCC 2998 > 100 µM | OVCAR-3 > 100 µM | A549 > 100 µM | IGROV-1 > 100 µM | SW-620 > 100 µM | SNB-75 > 100 µM | LOX IMVI > 100 µM | OVCAR-5 > 100 µM | LXFL 529 > 100 µM | CAKI-1 > 100 µM | NCI-H460 > 100 µM | RPMI-8226 > 100 µM | UACC-257 > 100 µM | M14 > 100 µM | RXF 631 > 100 µM | HCT-116 > 100 µM | HOP-92 > 100 µM | EKVX > 100 µM | UO-31 > 100 µM | DMS-273 > 100 µM | COLO 205 > 100 µM | HOP-18 > 100 µM | A498 > 100 µM | DLD-1 > 100 µM | KM12 > 100 µM | SR > 100 µM | SK-MEL-5 > 100 µM | SF-295 > 100 µM | SNB-19 > 100 µM | TK-10 > 100 µM | RXF 393 > 100 µM | K562 > 100 µM | HOP-62 > 100 µM
> 100 µM: HCT-15

Reference: ChEMBL document CHEMBL1201862, “PubChem BioAssay data set” (2004)
